Laboratory results reported in patent publication US8859527B2 (priority 2009, dated 2014).
Read-outs that look alike come from different tables or passages of the source.

Legend:
transplanted tumor Heps = conditions: Heps mice; for Body weight After administration / Tumor inhibition rate / Tumor weight: once every two days, four times
Procedure: Experimental groups: three dosage groups were set up for DPT, 10, 5 and 2.5 mg/kg; the blank control group: cyclophosphamide (CTX) group, Etoposide group 20 mg/kg.
Administration route: injection via tail vein, it is administered in a dosage of 0.4 ml/20 g body weight. Administration period: the drug is administrated 24 hours after the inoculation, once every two days for four times in total.
Experimental methods: 60 ICR mice with standard weight of from 18 to 22 g are inoculated with S-180 or Heps solid tumor according to the test method for transplanted tumors, hypodermic inoculation with 0.2 ml is carried out in the armpit in the anterior limb of every mouse. The body weight is determined 24 hours after the inoculation and they are randomly divided into six groups: the blank control group, the CTX group (20 mg/kg), the Etoposide group (20 mg/kg), the DPT group (10, 5 and 2.5 mg/Kg). The drug is administrated 24 hours after the inoculation once for every two days for 4 times, and tumor-bearing mice are killed on the next after drug withdrawal and their body weights are measured, and the separated tumor mess is weighed, and all of the data are subjected to statistical analyses (t-test).

[1] = system: A-549 (human lung adenocarcinoma cell line); experiment: in vitro growth inhibition of tumor cells, A-549; assay type: cell-based; conditions: for Inhibition effects on in vitro growth: A549, 48 hours
Procedure: (§1) The tumor strains are A-549 (human lung adenocarcinoma cell line), BGC-823 (human gastric cancer cell line), C-6 (rat neurogliocytoma cell line), Hep G2 (human hepatic cancer cell line), HL-60 (human leukemia cell line), K-562 (human erythremia cell line) and Hela (human cervical cancer cell line). […] The drug was prepared as a stock solution of 10^−2 M by using physiological saline and diluted into the test solution in a gradient composed of five concentrations: C1 5×10^−5 M, C2 10^−5 M, C3 10^−6 M, C4 10^−7 M and C5 10^−8 M.
(§2) Experimental method: different tumor cells in exponential growth phase are inoculated in 96-well plates in a certain amount and the selected samples are added after the cells are cultured for 24 hours (suspension cells can be directly added after being inoculated), after the cells are incubated at 37° C. and 5% CO2 for another 48 hours, […] is added for further incubation for another 4 hours, and finally the samples are examined on a microplate reader after dissolving with DMSO.

P-388 leukemia = P-388 leukemia cell line; cited from earlier work
colon cancer HT-29 = conditions: cited from earlier work
[2] = system: HL-60 (human leukemia cell line); experiment: in vitro growth inhibition of tumor cells, HL-60; assay type: cell-based; conditions: for Inhibition effects on in vitro growth: 48 hours
Procedure: as §1, §2

[3] = system: Hep G2 (human hepatic cancer cell line); experiment: in vitro growth inhibition of tumor cells, Hep G2; assay type: cell-based; conditions: HepG2, 48 hours
Procedure: as §1, §2

human lung cancer A-549 = conditions: cited from earlier work
[4] = system: C-6 (rat neurogliocytoma cell line); experiment: in vitro growth inhibition of tumor cells, C-6; assay type: cell-based; conditions: C6; for Inhibition effects on in vitro growth: 48 hours
Procedure: as §1, §2

[5] = water solubility by the method of Chinese Pharmacopoeia 2005; assay type: physicochemical; conditions: DPT not included
Procedure: HP-β-CD and DPT are prepared into inclusion complexes under different conditions, and the DPT concentration in the inclusion complex is determined by ultraviolet spectrophotometry, and the composition molar ratio of DPT to HP-β-CD in the inclusion complex is further calculated; the water-solubility of the inclusion complex is determined according to the method specified in the examples of Chinese Pharmacopoeia 2005, so that solubility of DPT in this inclusion complex is further calculated.
With regard to the three factors, namely the concentration of HP-β-CD solution, the temperature for inclusion and the duration for inclusion, orthogonal experiments are carried out on three levels (the concentrations of the HP-β-CD solutions are 10%, 20% and 30%; the temperatures are 40° C., 50° C. and 60° C.; the duration is 1 hour, 2 hour and 3 hour), content and solubility of DPT in the inclusion complex are used as the evaluation parameters for the efficacy of inclusion, and the results are shown in Table 3. The solubility is determined by the method specified in the examples in Chinese Pharmacopoeia 2005, and the results are shown in Table 4.
The DPT content in the inclusion complex is determined by ultraviolet spectrophotometry. The solubility is determined by using the method specified in the examples in Chinese Pharmacopoeia 2005, and the results are shown in Table 6.

[6] = system: K-562 (human erythremia cell line); experiment: in vitro growth inhibition of tumor cells, K-562; assay type: cell-based; conditions: for Inhibition effects on in vitro growth: K562, 48 hours
Procedure: as §1, §2

[7] = system: Hela (human cervical cancer cell line); experiment: in vitro growth inhibition of tumor cells, Hela; assay type: cell-based; conditions: for Inhibition effects on in vitro growth: hela, 48 hours
Procedure: as §1, §2

[8] = system: BGC-823 (human gastric cancer cell line); experiment: in vitro growth inhibition of tumor cells, BGC-823; assay type: cell-based; conditions: for Inhibition effects on in vitro growth: 48 hours
Procedure: as §1, §2

COc1cc([C@@H]2c3cc4c(cc3C[C@H]3COC(=O)[C@@H]32)OCO4)cc(OC)c1OC [DPT, Deoxypodophyllotoxin]
Body weight Before administration (transplanted tumor Heps; 2.5 mg/kg iv group): 20.20 ± 1.48 g | Body weight After administration (transplanted tumor Heps; 2.5 mg/kg iv): 24.50 ± 2.22 g | Tumor inhibition rate (transplanted tumor Heps; 2.5 mg/kg iv): 32.10% | Tumor weight (transplanted tumor Heps; 2.5 mg/kg iv): 1.34 ± 0.29 g | Body weight Before administration (transplanted tumor Heps; 5 mg/kg iv group): 20.80 ± 1.40 g | Body weight After administration (transplanted tumor Heps; 5 mg/kg iv): 24.00 ± 3.46 g | Tumor inhibition rate (transplanted tumor Heps; 5 mg/kg iv): 42.27% | Tumor weight (transplanted tumor Heps; 5 mg/kg iv): 1.14 ± 0.15 g | Body weight Before administration (transplanted tumor Heps; 10 mg/kg iv group): 21.40 ± 0.84 g | Body weight After administration (transplanted tumor Heps; 10 mg/kg iv): 22.90 ± 2.73 g | Tumor inhibition rate (transplanted tumor Heps; 10 mg/kg iv): 52.09% | Tumor weight (transplanted tumor Heps; 10 mg/kg iv): 0.94 ± 0.32 g | Inhibition effects on in vitro growth ([1]; 5 × 10^−5M): 59.18% | Inhibition effects on in vitro growth ([1]; 10^−5M): 56% | Inhibition effects on in vitro growth ([1]; 10^−6M): 53.5% | Inhibition effects on in vitro growth ([1]; 10^−7M): 52.24% | Inhibition effects on in vitro growth ([1]; 10^−8M): 50.77% | inhibition effects compared with Etoposide ([1]; A-549, 10^−5 to 10^−8 M): significant better than that of Etoposide | in vitro inhibition effects (P-388 leukemia): in vitro inhibition effects | in vitro inhibition effects (colon cancer HT-29): in vitro inhibition effects | Inhibition effects on in vitro growth ([2]; 5 × 10^−5M): 57.37% | Inhibition effects on in vitro growth ([2]; 10^−5M): 39.41% | inhibition effects compared with Etoposide ([2]; 10^−5 to 10^−8 M): significant better than that of Etoposide | Inhibition effects on in vitro growth ([2]; 10^−6M): 36.83% | Inhibition effects on in vitro growth ([2]; 10^−7M): 29.27% | Inhibition effects on in vitro growth ([2]; 10^−8M): 14.96% | Inhibition effects on in vitro growth ([3]; 5 × 10^−5M): 52.98% | Inhibition effects on in vitro growth ([3]; 10^−5M): 31.85% | Inhibition effects on in vitro growth ([3]; 10^−6M): 22.49% | Inhibition effects on in vitro growth ([3]; 10^−7M): 24.36% | Inhibition effects on in vitro growth ([3]; 10^−8M): 24.32% | in vitro inhibition effects (human lung cancer A-549): in vitro inhibition effects | Inhibition effects on in vitro growth ([4]; 5 × 10^−5M): 84.41% | Inhibition effects on in vitro growth ([4]; 10^−5M): 58.54% | inhibition effects compared with Etoposide ([4]; 10^−5 to 10^−8 M): significant better than that of Etoposide | Inhibition effects on in vitro growth ([4]; 10^−6M): 55.01% | Inhibition effects on in vitro growth ([4]; 10^−7M): 54.11% | Inhibition effects on in vitro growth ([4]; 10^−8M): 52.34% | solubility of DPT in water [5]: about 0.5 mg/L | Inhibition effects on in vitro growth ([6]; 5 × 10^−5M): 67.05% | Inhibition effects on in vitro growth ([6]; 10^−5M): 54.02% | Inhibition effects on in vitro growth ([6]; 10^−6M): 50.95% | Inhibition effects on in vitro growth ([6]; 10^−7M): 43.77% | Inhibition effects on in vitro growth ([6]; 10^−8M): 35.82% | inhibition effects compared with Etoposide ([6]; K-562, 10^−5 to 10^−8 M): significant better than that of Etoposide | inhibition effects compared with Etoposide ([7]; Hela, 10^−5 to 10^−8 M): significant better than that of Etoposide | Inhibition effects on in vitro growth ([7]; 5 × 10^−5M): 62.68% | Inhibition effects on in vitro growth ([7]; 10^−5M): 49.89% | Inhibition effects on in vitro growth ([7]; 10^−6M): 47.9% | Inhibition effects on in vitro growth ([7]; 10^−7M): 46.57% | Inhibition effects on in vitro growth ([7]; 10^−8M): 42.9% | Inhibition effects on in vitro growth ([8]; 5 × 10^−5M): 52.54% | Inhibition effects on in vitro growth ([8]; 10^−5M): 35.31% | inhibition effects compared with Etoposide ([8]; 10^−5 to 10^−8 M): significant better than that of Etoposide | Inhibition effects on in vitro growth ([8]; 10^−6M): 33.2% | Inhibition effects on in vitro growth ([8]; 10^−7M): 30.35% | Inhibition effects on in vitro growth ([8]; 10^−8M): 24.49%
